Test results taken from patent US20250188095A1, “DISUBSTITUTED OCTAHYDROPYRROLO[3,4-c]PYRROLYL METHYL KETONE DERIVATIVE AND USE THEREOF” (JIANGSU NHWA PHARMACEUTICAL CO., LTD, priority 2022, published 2025).

Legend:
OX2 receptor = OX2 receptor (Homo sapiens (Human), UniProt O43614); experiment: In vitro activity test (Cisbio IP-one, CHO-K1-OX2 cells, antagonism of EC80 agonist); type: cell-based
Method: (§1) (1) Preparation of a reaction buffer (1×Stimulation buffer) required for the experiment: The 5×Stimulation buffer and ddH2O in the Cisbio IP-one kit were diluted in a ratio of 1:4 for later use.
(§2) (2) Compound preparation: The compound was diluted with DMSO to obtain a 5 mM stock solution, followed by a 3.16-fold dilution to obtain 10 gradients, and then the prepared compound was diluted with the Stimulation buffer to the corresponding concentrations (4×) for later use.
(§3) (3) Cell preparation: CHO-K1-OX1 and CHO-K1-OX2 cells on the culture dish were digested with trypsin, and the cells were washed off with culture medium and collected into 5 mL centrifuge tubes. The cells were centrifuged at 1000 rpm for 5 min, and the supernatant was discarded. 3 mL of PBS was added, and the mixture was gently pipetted to be mixed well. The cells were centrifuged again at 1000 rpm for 5 min, and the supernatant was discarded. The cells were resuspended in 1×Stimulation buffer and counted using a Countstar cell counter, and the cell density was adjusted to 1.71×10^6 cells/mL for later use.
(§4) (4) Cell addition: The cell suspensions were added to assay plates at 7 μL/well (i.e., about 12,000 cells/well).
(§5) (5) Compound addition: The compound diluted with the Stimulation buffer was added to the assay plates described above at 3.5 μL/well.
(§6) (6) Reaction and incubation: After gentle shaking, the assay plates were incubated at 37° C. for 30 min.
(§7) (7) EC80 agonist addition: 4×Orexin A (OX1 receptor) and 4×Orexin 2 receptor agonist (OX2 receptor) solutions of EC80 were added at 3.5 μL/well.
(§8) (8) Reaction and incubation: After gentle shaking, the assay plates were incubated at 37° C. for 45 min.
(§9) (9) Detection reagent addition: IP1-d2 and Anti-IP1 cryptate were separately diluted in a 1:20 ratio with the Lysis & detection buffer in the Cisbio IP-one detection kit, and the diluted IP1-d2 and Anti-IP1 cryptate described above were added to the assay plates, each at 3 μL/well. After shaking, the assay plates were left to stand at room temperature for 60 min.
(§10) (10) Experimental readings: The plate was read on Envision, readings from the 665 nm and 615 nm channels were taken, and the ratio of 665 nm/615 nm readings was calculated.
(§11) Based on the antagonistic effect values of the compound sample at different concentration test points, antagonistic curves of the compound sample against the orexin receptors were fitted using GraphPad Prism software, and the IC50 was calculated.

OX1 receptor = OX1 receptor (Homo sapiens (Human), UniProt O43613); experiment: In vitro activity test (Cisbio IP-one, CHO-K1-OX1 cells, antagonism of EC80 Orexin A); type: cell-based
Method: as §1, §2, §3, §4, §5, §6, §7, §8, §9, §10, §11

[1] = Rat pharmacokinetic parameters in rat plasma; type: in vivo; conditions: male SD rats; for bioavailability: PO 10 mg/kg vs iv 1 mg/kg, read-out: F (%) oral bioavailability
Method: Healthy male SD rats aged 6-9 weeks were selected and randomly divided into two groups, with 3 rats in each group. One group was given 1 mg/kg of the test compound by intravenous injection, and the other group was given 10 mg/kg of the test compound by gavage. Whole blood was collected from the animals in the intravenous group and the gavage group before administration and 0.083, 0.25, 0.5, 1.0, 2.0, 4.0, 7.0, 10.0, and 24.0 h after administration and centrifuged to obtain plasma samples.
All biological samples were quantitatively analyzed using the LC-MS/MS method. Pharmacokinetic parameters were calculated using the non-compartmental model linear-log trapezoidal method using WinNonlinTMVersion7.0 (Pharsight, Mountain View, CA) pharmacokinetic software. AUC0-last represents the area under the plasma concentration-time curve from time point zero to the last detectable concentration time point; PO represents oral administration; iv represents intravenous, Cmax represents the peak concentration, and F % represents oral bioavailability.

ICR mice [2] = experiment: Autonomous activities of mice; type: in vivo; conditions: male ICR mice; for Inhibition rate (%): vs vehicle; for Movement distance (m): within 60 min, Mean±SD
Method: Male ICR mice aged 6-9 weeks were randomly divided into groups based on body weight balance, with 8 or 9 mice per group, and the groups were given blank vehicle and 10, 30, and 100 mg/kg of the test compound, respectively. The animals were placed in a test chamber immediately after administration, and the activity distances of the animals within 60 min were recorded and analyzed with Top Scan Version 3.0. […] Experimental data were expressed as mean±standard deviation (Mean±SD). One-way ANOVA analysis was performed using SPSS 21.0 statistical software, and pairwise comparisons were performed using Dunnett's test, with p<0.05 represented by *.

ICR mice [3] = experiment: Pentobarbital sodium synergistic sleep test; type: in vivo; conditions: male ICR mice, pentobarbital sodium 45 mg/kg ip, Mean±SD
Method: Male ICR mice aged 6-9 weeks were randomly divided into groups based on body weight balance, with 8 mice per group, and the groups were given blank vehicle and 3, 10, and 30 mg/kg of the test compound, respectively. After 5 min, pentobarbital sodium was intraperitoneally injected at 45 mg/kg. The moments when righting reflexes disappeared and the moments when righting reflexes reappeared in mice were recorded. Sleep latency=moment when righting reflex disappeared−moment when pentobarbital sodium was administered, and sleep duration=moment when righting reflex reappeared−moment when righting reflex disappeared. […] Experimental data were expressed as mean±standard deviation (Mean±SD). One-way ANOVA analysis was performed using SPSS 21.0 statistical software, and pairwise comparisons were performed using Dunnett's test, with p<0.05 represented by *.

OX2 receptor, sequence (O43614 whole entry): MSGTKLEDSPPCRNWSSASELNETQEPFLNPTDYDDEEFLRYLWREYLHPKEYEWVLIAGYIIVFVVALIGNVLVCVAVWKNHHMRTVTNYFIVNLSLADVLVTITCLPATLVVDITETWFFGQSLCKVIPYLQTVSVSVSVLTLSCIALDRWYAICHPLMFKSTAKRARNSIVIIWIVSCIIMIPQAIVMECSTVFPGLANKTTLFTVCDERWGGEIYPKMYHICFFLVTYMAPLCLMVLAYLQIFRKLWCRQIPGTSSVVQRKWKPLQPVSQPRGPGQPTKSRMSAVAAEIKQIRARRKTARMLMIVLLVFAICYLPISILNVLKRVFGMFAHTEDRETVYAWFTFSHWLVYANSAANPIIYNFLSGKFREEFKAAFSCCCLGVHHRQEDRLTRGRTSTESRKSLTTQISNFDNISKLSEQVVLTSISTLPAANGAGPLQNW
OX1 receptor, sequence (O43613 whole entry): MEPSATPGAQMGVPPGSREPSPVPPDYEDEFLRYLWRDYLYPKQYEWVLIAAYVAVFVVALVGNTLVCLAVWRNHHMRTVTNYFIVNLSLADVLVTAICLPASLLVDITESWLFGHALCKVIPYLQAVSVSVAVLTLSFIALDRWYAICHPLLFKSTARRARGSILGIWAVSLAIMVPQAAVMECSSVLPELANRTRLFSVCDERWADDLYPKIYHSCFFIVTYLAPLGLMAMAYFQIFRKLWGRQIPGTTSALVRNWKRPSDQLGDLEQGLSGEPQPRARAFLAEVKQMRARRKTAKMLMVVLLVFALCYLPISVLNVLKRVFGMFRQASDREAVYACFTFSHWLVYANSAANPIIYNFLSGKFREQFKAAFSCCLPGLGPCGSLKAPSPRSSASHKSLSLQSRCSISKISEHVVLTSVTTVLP

Row | SMILES | IC50 (OX2 receptor) [nM] | IC50 (OX1 receptor) [nM] | AUC(0-t) ([1]; PO 10 mg/kg) [ng·h/mL] | Cmax ([1]; PO 10 mg/kg) [ng/mL] | bioavailability [1] [%] | AUC(0-t) ([1]; iv 1 mg/kg) [ng·h/mL] | Cmax ([1]; iv 1 mg/kg) [ng/mL] | Inhibition rate (%) (ICR mice [2]; 10 mg/kg) | Movement distance (m) (ICR mice [2]; 10 mg/kg) | Inhibition rate (%) (ICR mice [2]; 30 mg/kg) | Movement distance (m) (ICR mice [2]; 30 mg/kg) | Inhibition rate (%) (ICR mice [2]; 100 mg/kg) | Movement distance (m) (ICR mice [2]; 100 mg/kg) | Sleep duration (ICR mice [3]; 3 mg/kg) [min] | Sleep latency (ICR mice [3]; 3 mg/kg) [min] | Sleep duration (ICR mice [3]; 10 mg/kg) [min] | Sleep latency (ICR mice [3]; 10 mg/kg) [min] | Sleep duration (ICR mice [3]; 30 mg/kg) [min] | Sleep latency (ICR mice [3]; 30 mg/kg) [min]
1 | Cc1cc(C)nc(N2C[C@H]3CN(C(=O)c4c(-c5ncccc5F)cn5ccccc45)C[C@H]3C2)n1 [Example 3, ((3aR,6aS)-5-(4,6-dimethylpyrimidin-2-yl)hexahydropyrrolo[3,4-c]pyrrol-2(1H)-yl)(2-(3-fluoropyridin-2-yl)indolizin-1-yl)methanone] | < 100 | > 1000 | 2000 | 2780 | 56.3 | 355 | 875 | −5.22 | 68.58 ± 24.42 | 9.82 | 58.78 ± 18.31 | 40.63 | 38.69 ± 13.98 | 57.88 ± 23.72 | 15.21 ± 4.60 | 62.73 ± 29.84 | 17.72 ± 6.04 | 63.15 ± 34.38 | 24.28 ± 8.97
2 | Cc1cc(C)nc(N2C[C@H]3CN(C(=O)c4c(-c5cccs5)nn5ccccc45)C[C@H]3C2)n1 [Example 5, ((3aR,6aS)-5-(4,6-dimethylpyrimidin-2-yl)hexahydropyrrolo[3,4-c]pyrrol-2(1H)-yl)(2-(thiophen-2-yl)pyrazolo[1,5-a]pyridin-3-yl)methanone] | < 100 | > 1000 |  |  |  |  |  | 2.37 | 63.64 ± 33.70 | 46.97 | 34.56 ± 10.71 | 49.17 | 33.13 ± 14.64 |  |  |  |  |  | 
3 | Cc1nc(N2C[C@H]3CN(C(=O)c4c(-c5ncccc5F)cn5ccccc45)C[C@H]3C2)nc2c1CCC2 [Example 26, (2-(3-fluoropyridin-2-yl)indolizin-1-yl)((3aR,6aS)-5-(4-methyl-6,7-dihydro-5H-cyclopenta[d]pyrimidin-2-yl)hexahydropyrrolo[3,4-c]pyrrol-2(1H)-yl)methanone] | < 100 | > 1000 |  |  |  |  |  |  |  |  |  |  |  |  |  |  |  |  | 
4 | Cc1cc(C)nc(N2C[C@H]3CN(C(=O)c4c(-c5cccs5)cn5ccccc45)C[C@H]3C2)n1 [Example 28] | < 100 | > 1000 |  |  |  |  |  |  |  |  |  |  |  |  |  |  |  |  | 
5 | Cc1cc(C)nc(N2C[C@H]3CN(C(=O)c4c(-c5cccs5)nn5cc(F)ccc45)C[C@H]3C2)n1 [Example 37, [(3aR,6aS)-5-(4,6-dimethylpyrimidin-2-yl)hexahydropyrrolo[3,4-c]pyrrol-2(1H)-yl][6-fluoro-2-(thiophen-2-yl)pyrazolo[1,5-a]pyridin-3-yl]methanone] | < 100 | > 1000 |  |  |  |  |  | 5.03 | 61.90 ± 16.82 | 37.27 | 40.89 ± 21.03 | 39.52 | 39.42 ± 13.92 |  |  |  |  |  | 

Further lines, with some results ahead:

Row | IC50 (OX2 receptor) [nM] | IC50 (OX1 receptor) [nM] | AUC(0-t) ([1]; PO 10 mg/kg) [ng·h/mL] | Cmax ([1]; PO 10 mg/kg) [ng/mL] | bioavailability [1] [%] | AUC(0-t) ([1]; iv 1 mg/kg) [ng·h/mL] | Cmax ([1]; iv 1 mg/kg) [ng/mL] | SMILES | Inhibition rate (%) (ICR mice [2]; 10 mg/kg) | Movement distance (m) (ICR mice [2]; 10 mg/kg) | Inhibition rate (%) (ICR mice [2]; 30 mg/kg) | Movement distance (m) (ICR mice [2]; 30 mg/kg) | Inhibition rate (%) (ICR mice [2]; 100 mg/kg) | Movement distance (m) (ICR mice [2]; 100 mg/kg) | Sleep duration (ICR mice [3]; 3 mg/kg) [min] | Sleep latency (ICR mice [3]; 3 mg/kg) [min] | Sleep duration (ICR mice [3]; 10 mg/kg) [min] | Sleep latency (ICR mice [3]; 10 mg/kg) [min] | Sleep duration (ICR mice [3]; 30 mg/kg) [min] | Sleep latency (ICR mice [3]; 30 mg/kg) [min]
6 | < 100 | > 1000 | 353 | 668 | 24.6 | 143 | 439 | Cc1cc(C)nc(N2C[C@H]3CN(C(=O)c4c(-c5ccccn5)nn5cc(F)ccc45)C[C@H]3C2)n1 [Example 30, ((3aR,6aS)-5-(4,6-dimethylpyrimidin-2-yl)hexahydropyrrolo[3,4-c]pyrrol-2(1H)-yl)(6-fluoro-2-(pyridin-2-yl)pyrazolo[1,5-a]pyridin-3-yl)methanone] |  |  |  |  |  |  | 62.34 ± 17.87 | 5.03 ± 0.51 | 66.79 ± 14.88 | 5.17 ± 0.81 | 65.61 ± 19.83 | 6.52 ± 5.25
7 | < 100 | > 1000 | 560 | 925 | 25.3 | 221 | 715 | Cc1cc(C)nc(N2C[C@H]3CN(C(=O)c4c(-c5ccncc5)nn5ccccc45)C[C@H]3C2)n1 [Example 34, ((3aR,6aS)-5-(4,6-dimethylpyrimidin-2-yl)hexahydropyrrolo[3,4-c]pyrrol-2(1H)-yl)(2-(pyridin-4-yl)pyrazolo[1,5-a]pyridin-3-yl)methanone] | 8.19 | 59.84 ± 19.89 | 28.13 | 46.84 ± 16.61 | 50.36 | 32.36 ± 20.35 |  |  |  |  |  | 
8 | < 100 | > 1000 |  |  |  |  |  | Cc1cc(C)nc(N2C[C@H]3CN(C(=O)c4c(-c5cccnc5)nn5ccccc45)C[C@H]3C2)n1 [Example 36, [(3aR,6aS)-5-(4,6-dimethylpyrimidin-2-yl)hexahydropyrrolo[3,4-c]pyrrol-2(1H)-yl][2-(pyridin-3-yl)pyrazolo[1,5-a]pyridin-3-yl]methanone] | 32.08 | 44.27 ± 13.76 | 34.37 | 42.78 ± 20.27 | 57.33 | 27.81 ± 19.12 | 50.35 ± 9.35 | 10.21 ± 4.49 | 38.89 ± 10.66 | 10.58 ± 5.65 | 56.19 ± 27.74 | 8.84 ± 3.67
